In ChEMBL document CHEMBL4602732, “Optimizing Pyrazolopyrimidine Inhibitors of Calcium Dependent Protein Kinase 1 for Treatment of Acute and Chronic Toxoplasmosis” (J Med Chem, 2020):
Active and inactive are the calls of the source. No cut-off for these calls is given here.

What was measured:
[1] = AUC in CD1 mouse at 3 mg/kg, iv or 10 mg/kg, po administered via gavage by LC-MS/MS analysis; format: ADME, organism-based; conditions: in vivo
[2] = biological target: T1, ALK5 (TGF-beta receptor type-1) (Homo sapiens, UniProt P36897); assay: Inhibition of human […] N-terminal GST-tagged ALK5 (200 to 503 residues) expressed in baculovirus expression system at 1 uM by Lanthascreen assay relative to control
T1 sequence (P36897 whole entry): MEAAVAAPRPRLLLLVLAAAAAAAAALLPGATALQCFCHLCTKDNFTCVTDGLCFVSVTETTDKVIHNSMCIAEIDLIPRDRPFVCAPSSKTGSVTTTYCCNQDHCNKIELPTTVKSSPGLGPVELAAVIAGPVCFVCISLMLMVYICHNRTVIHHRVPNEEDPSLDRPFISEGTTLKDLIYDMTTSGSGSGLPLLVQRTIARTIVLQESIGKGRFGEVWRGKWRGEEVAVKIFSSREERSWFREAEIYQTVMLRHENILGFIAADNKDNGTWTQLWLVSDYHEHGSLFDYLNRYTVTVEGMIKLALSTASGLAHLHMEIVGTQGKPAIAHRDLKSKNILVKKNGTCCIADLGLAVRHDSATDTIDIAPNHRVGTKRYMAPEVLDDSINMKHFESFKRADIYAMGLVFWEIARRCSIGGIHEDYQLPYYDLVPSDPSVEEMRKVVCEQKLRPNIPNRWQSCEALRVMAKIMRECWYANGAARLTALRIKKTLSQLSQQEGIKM

Toxoplasma gondii [3] = assay: Protection against reactivation of type 2 Toxoplasma gondii ME49 infection in sulfadiazin-treated Ifngr1-/- CD1 mouse assessed as reduction in mouse death at 60 mg/kg, po administered twice daily via gavage for 8 days measured up to 30 days; format: functional, organism-based
Toxoplasma gondii [4] = assay: Antiparasitic activity against type 1 Toxoplasma gondii RH tachyzoites infected in CD1 mouse assessed as […] at 15 mg/kg, po administered four times daily via gavage for 7 days followed by lung and brain isolation on 15 days post-infection and co-culture with naive CD1 mouse; format: functional
[5] = biological target: Voltage-gated inwardly rectifying potassium channel KCNH2 (Homo sapiens, UniProt Q12809); assay: Inhibition of human ERG expressed in CHOK1 cells by patch-clamp electrophysiology assay; format: cell-based, CHO-K1
Sequence of Voltage-gated inwardly rectifying potassium channel KCNH2 (Q12809 whole entry): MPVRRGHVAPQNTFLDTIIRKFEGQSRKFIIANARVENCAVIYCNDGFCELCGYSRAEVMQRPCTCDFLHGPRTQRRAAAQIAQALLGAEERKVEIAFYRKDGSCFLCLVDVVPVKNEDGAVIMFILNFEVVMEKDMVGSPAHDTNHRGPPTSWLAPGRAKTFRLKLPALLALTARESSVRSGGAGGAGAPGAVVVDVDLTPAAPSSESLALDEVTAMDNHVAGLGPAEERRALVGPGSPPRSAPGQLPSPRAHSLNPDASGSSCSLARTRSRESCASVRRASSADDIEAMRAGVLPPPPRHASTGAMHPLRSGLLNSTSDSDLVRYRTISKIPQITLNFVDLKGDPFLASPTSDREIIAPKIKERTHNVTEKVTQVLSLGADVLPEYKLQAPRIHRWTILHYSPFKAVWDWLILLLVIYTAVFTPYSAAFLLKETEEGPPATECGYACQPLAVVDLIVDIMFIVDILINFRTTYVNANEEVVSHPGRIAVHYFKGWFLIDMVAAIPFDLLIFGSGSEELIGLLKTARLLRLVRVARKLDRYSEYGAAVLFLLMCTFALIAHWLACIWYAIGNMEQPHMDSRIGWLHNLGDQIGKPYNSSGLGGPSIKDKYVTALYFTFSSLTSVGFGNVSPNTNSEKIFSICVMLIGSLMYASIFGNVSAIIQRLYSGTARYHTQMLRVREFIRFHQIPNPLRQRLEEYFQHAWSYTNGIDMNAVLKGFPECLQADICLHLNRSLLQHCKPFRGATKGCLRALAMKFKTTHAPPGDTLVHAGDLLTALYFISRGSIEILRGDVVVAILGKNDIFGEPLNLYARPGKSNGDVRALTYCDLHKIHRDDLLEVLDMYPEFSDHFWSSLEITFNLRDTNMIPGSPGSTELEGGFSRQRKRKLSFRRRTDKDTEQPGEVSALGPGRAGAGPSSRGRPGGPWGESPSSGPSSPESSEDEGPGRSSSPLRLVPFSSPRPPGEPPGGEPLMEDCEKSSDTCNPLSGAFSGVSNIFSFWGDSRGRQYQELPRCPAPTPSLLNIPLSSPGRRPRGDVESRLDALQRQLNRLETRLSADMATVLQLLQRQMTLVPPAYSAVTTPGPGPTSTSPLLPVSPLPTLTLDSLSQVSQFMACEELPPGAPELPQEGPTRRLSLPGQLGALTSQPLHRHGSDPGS

Toxoplasma gondii [6] = assay: Antiparasitic activity against 2F clone of type 1 Toxoplasma gondii RH tachyzoites expressing beta-galactosidase infected in HFF assessed as reduction in parasite growth measured after 72 hrs by chlorophenol Red-beta-D-galactopyranoside substrate based assay; format: functional, organism-based
Toxoplasma gondii [7] = assay: Antiparasitic activity against type 1 Toxoplasma gondii RH tachyzoites infected in CD1 mouse assessed as reduction in mouse death at 30 mg/kg, po administered twice daily via gavage for 7 days by bioluminescence assay; format: functional, organism-based
[8] = Half life in mouse liver microsomes at 10 uM preincubated for 10 mins followed by NADPH addition by LC-MS/MS analysis; format: ADME, Microsome; conditions: liver microsomes
[9] = Genotoxicity in Salmonella typhimurium TA100 at 0.004 to 5 mg/ml measured after 90 mins in presence of rat S9 fraction by mini-Ames test; format: toxicity, subcellular; conditions: salmonella enterica subsp. enterica serovar typhimurium
[10] = Cytotoxicity against human CMEC/D3 cells assessed as cell growth at 20 uM measured after 72 hrs by cellTiter 96 AQueous non-radioactive cell proliferation assay relative to control; format: cell-based, hCMEC/D3; conditions: read-out: Activity
Toxoplasma gondii [11] = assay: Antiparasitic activity against Toxoplasma gondii type III CTG tachyzoites infected in HFF assessed as reduction in parasite growth; format: functional, organism-based
Toxoplasma gondii [12] = assay: Antiparasitic activity against type 1 Toxoplasma gondii RH tachyzoites infected in CD1 mouse assessed as reduction in parasite expansion at 60 mg/kg, po administered once daily via gavage for 7 days by bioluminescence assay; format: functional, organism-based
Toxoplasma gondii [13] = assay: Antiparasitic activity against type 1 Toxoplasma gondii RH tachyzoites infected in CD1 mouse assessed as reduction in parasite expansion at 15 mg/kg, po administered four times daily via gavage for 7 days by bioluminescence assay; format: functional, organism-based
[14] = Genotoxicity in Salmonella typhimurium TA100 at 0.004 to 5 mg/ml measured after 90 mins in absence of rat S9 fraction by mini-Ames test; format: toxicity; conditions: salmonella enterica subsp. enterica serovar typhimurium
Cytochrome P450 1A2 = biological target: T2, Cytochrome P450 1A2 (Homo sapiens, UniProt P05177); assay: Inhibition of CYP1A2 in human liver microsomes using phenacetin as substrate measured after 10 mins by LC-MS/MS analysis; format: ADME
T2 sequence (P05177 whole entry): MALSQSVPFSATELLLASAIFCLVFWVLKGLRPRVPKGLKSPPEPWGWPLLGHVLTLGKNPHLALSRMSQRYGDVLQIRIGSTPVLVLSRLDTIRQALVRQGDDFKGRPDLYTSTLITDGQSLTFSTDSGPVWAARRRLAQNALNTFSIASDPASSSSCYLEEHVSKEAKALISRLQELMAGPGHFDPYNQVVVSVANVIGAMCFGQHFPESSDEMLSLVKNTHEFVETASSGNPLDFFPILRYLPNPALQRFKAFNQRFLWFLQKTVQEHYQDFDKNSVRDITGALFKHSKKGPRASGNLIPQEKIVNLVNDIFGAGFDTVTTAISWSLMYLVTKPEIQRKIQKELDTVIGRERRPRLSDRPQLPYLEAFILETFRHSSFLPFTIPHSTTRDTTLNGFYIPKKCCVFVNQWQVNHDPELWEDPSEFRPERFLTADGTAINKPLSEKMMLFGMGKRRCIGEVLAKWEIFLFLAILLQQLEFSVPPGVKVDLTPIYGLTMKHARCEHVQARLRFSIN

[15] = Oral bioavailability in CD1 mouse at 10 mg/kg administered via gavage by LC-MS/MS analysis; format: ADME, organism-based; conditions: in vivo
[16] = Clearance in human hepatocytes assessed per million cells at 1 uM by LC-MS/MS analysis; format: ADME, cell-based, Hepatocyte
[17] = Intrinsic clearance in human liver microsomes at 10 uM preincubated for 10 mins followed by NADPH addition by LC-MS/MS analysis; format: ADME, Microsome; conditions: read-out: CLH
Toxoplasma gondii [18] = assay: Antiparasitic activity against type 2 Toxoplasma gondii ME49 tachyzoites infected in HFF assessed as reduction in parasite growth; format: functional, organism-based
Toxoplasma gondii [19] = assay: Antiparasitic activity against type 1 Toxoplasma gondii RH tachyzoites infected in CD1 mouse assessed as reduction in mouse death at 60 mg/kg, po administered once daily via gavage for 7 days by bioluminescence assay; format: functional, organism-based
Toxoplasma gondii [20] = assay: Antiparasitic activity against type 1 Toxoplasma gondii RH tachyzoites infected in CD1 mouse assessed as reduction in parasite dissemination at 60 mg/kg, po administered once daily via gavage for 7 days by bioluminescence assay; format: functional, organism-based
[21] = Half life in CD1 mouse at 3 mg/kg, iv or 10 mg/kg, po administered via gavage by LC-MS/MS analysis; format: ADME, organism-based; conditions: in vivo
[22] = Protein binding in mouse brain assessed as unbound fraction; format: ADME, tissue-based
[23] = Protein binding in mouse plasma assessed as unbound fraction at 2 uM measured after 4 hrs by LC-MS/MS analysis; format: ADME, cell-free
Toxoplasma gondii [24] = assay: Antiparasitic activity against type 1 Toxoplasma gondii RH tachyzoites infected in CD1 mouse assessed as reduction in mouse death at 15 mg/kg, po administered four times daily via gavage for 7 days by bioluminescence assay; format: functional, organism-based

Nc1ncnc2c1c(Oc1cc(C(F)(F)F)ccn1)nn2C1CC1
AUC [1]: 2677 ng·h/mL | inhibition at 1 µM [2]: > 50% | Activity (Toxoplasma gondii [3]): Active | survival at 15 mg/kg (Toxoplasma gondii [4]): 20% | IC50 [5]: > 30000 nM | EC50 (Toxoplasma gondii [6]): 172 nM | Activity (Toxoplasma gondii [7]): Active | half-life at 10 µM [8]: > 2.42 h | Activity [9]: Non-Toxic | viability at 72 h, 20 µM [10]: 132% | EC50 (Toxoplasma gondii [11]): 168 nM | Activity (Toxoplasma gondii [12]): Active | Activity (Toxoplasma gondii [13]): Active | Activity [14]: Non-Toxic | EC50 (Cytochrome P450 1A2): 460 nM | bioavailability [15]: 83% | CLH [16]: < 6.4 µL/min/1e6 cells | CLint scaled at 10 µM [17]: < 8.6 mL/min/kg | EC50 (Toxoplasma gondii [18]): 260 nM | Activity (Toxoplasma gondii [19]): Active | Activity (Toxoplasma gondii [20]): Active | t1/2 [21]: 4.2 h | fraction unbound [22]: 0.101 | Fu [23]: 15.6% | Activity (Toxoplasma gondii [24]): Active

N#Cc1ccnc(Oc2nn([C@H]3C[C@H](F)C3)c3ncnc(N)c23)c1
AUC [1]: 3140 ng·h/mL | IC50 [5]: > 30000 nM | EC50 (Toxoplasma gondii [6]): 201 nM | half-life at 10 µM [8]: > 2.42 h | Activity [9]: Non-Toxic | viability at 72 h, 20 µM [10]: 135% | Activity [14]: Non-Toxic | EC50 (Cytochrome P450 1A2): 20800 nM | bioavailability [15]: 43.1% | CLH [16]: 10 µL/min/1e6 cells | CLint scaled at 10 µM [17]: < 8.6 mL/min/kg | t1/2 [21]: 1.43 h | Fu [23]: 29.3%
